Laboratory results published in US8486948B2, “Piperazinodihydrothienopyrimidine derivatives” (Boehringer Ingelheim International GmbH, priority 2007, dated 2013).
Structures can show the parent of a compound that is named as a salt.

What follows are compounds tested against PDE4B (Homo sapiens, UniProt Q07343) (assay: Scintillation Proximity (SPA) assay, inhibition of PDE4B at 1 μM). Details: Table A; test substance 1 μM; one hour incubation with [H3]-cAMP at 30° C.
Sequence of PDE4B (Q07343 whole entry, species assumed): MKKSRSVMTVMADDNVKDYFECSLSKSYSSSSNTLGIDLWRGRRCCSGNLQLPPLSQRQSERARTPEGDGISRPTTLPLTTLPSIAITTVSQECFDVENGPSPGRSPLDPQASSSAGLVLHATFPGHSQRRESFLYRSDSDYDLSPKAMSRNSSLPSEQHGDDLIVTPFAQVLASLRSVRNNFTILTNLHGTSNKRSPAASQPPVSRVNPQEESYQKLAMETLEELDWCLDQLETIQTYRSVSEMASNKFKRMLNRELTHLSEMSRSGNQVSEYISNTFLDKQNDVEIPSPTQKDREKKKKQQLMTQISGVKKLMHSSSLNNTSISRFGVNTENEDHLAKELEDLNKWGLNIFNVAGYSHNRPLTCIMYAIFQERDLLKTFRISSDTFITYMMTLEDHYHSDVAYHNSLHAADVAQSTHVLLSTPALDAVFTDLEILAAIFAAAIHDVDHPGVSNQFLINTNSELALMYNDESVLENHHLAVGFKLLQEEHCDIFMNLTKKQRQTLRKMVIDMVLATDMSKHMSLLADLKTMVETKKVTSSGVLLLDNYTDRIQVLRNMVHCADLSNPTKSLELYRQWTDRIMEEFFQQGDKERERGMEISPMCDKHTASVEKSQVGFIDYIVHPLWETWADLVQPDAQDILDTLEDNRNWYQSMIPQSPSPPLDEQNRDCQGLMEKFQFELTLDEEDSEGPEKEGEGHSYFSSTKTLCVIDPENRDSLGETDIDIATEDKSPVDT
Format: biochemical
Procedure: The inhibitions (in %) at 1 μM of the individual Example substances are included in the following Tables of Examples and were determined as follows:
The Scintilation Proximity (SPA) Assays (GE Healthcare, No. TRKQ7090) make use of the different affinities of cyclic 3″-5″-adenosine monophosphate (cAMP, low affinity) and linear 5′-adenosine monophosphate (AMP, high affinity) for yttrium silicate scintillator beads. The cAMP specific phosphodiesterase (PDE) PDE4B cleaves the 3′-phosphoester bond of the tritium-labelled [H3]-cAMP to form the [H3]-5′-AMP. Because of its higher affinity for the scintillator beads this [H3]-AMP accumulates on the beads and causes scintillation events (flashes of light) which are measured in a Wallac Microbeta Scintillation Counter.
The test starts with one hour's incubation of [H3]-cAMP with the PDE4B enzyme in assay buffer at 30° C., once with the Example substance that is to be tested (in a concentration of 1 μM) and once without the Example substance that is to be tested. After this incubation the reaction is stopped by the addition of the beads. The beads are given an opportunity to settle over the next 45 minutes, then they are measured in the Scintillation Counter. If the substance is capable of inhibiting the enzymatic activity of the PDE4B, less [H3]-AMP is formed during the incubation phase and fewer scintillation events can be measured.
Compound `CC(C)[C@H](CO)Nc1nc(N2CCN(c3ccccc3)C(=O)C2)nc2c1[S+]([O-])CC2` (some centres unmarked) [Example 15] has an inhibition at 1 µM of 77%.
`O=C1CN(c2nc3c(c(NC4(CO)CC4)n2)[S+]([O-])CC3)CCN1c1ccccc1` (centres unmarked) [Example 16] showed an inhibition at 1 µM of 86%.
With `O=C1CN(c2nc3c(c(NC4(CO)CC4)n2)[S+]([O-])CC3)CCN1c1ccc(Br)cc1` (centres unmarked) [Example 11] the inhibition at 1 µM was 90%.
`O=C1CN(c2nc3c(c(NC4(CO)CC4)n2)[S+]([O-])CC3)CCN1c1cccc(Br)c1` (centres unmarked) [Example 13] was tested, and the inhibition at 1 µM was 19%.
`[O-][S+]1CCc2nc(N3CC4CC3CN4c3ccc(Br)cc3)nc(NC3(CO)CC3)c21` (centres unmarked) [Example 22] was tested, and the inhibition at 1 µM was 95%.
`CC(C)[C@H](CO)Nc1nc(N2CCN(c3ccc(Cl)cc3)C[C@@H]2C)nc2c1[S+]([O-])CC2` (some centres unmarked) [Example 2] showed an inhibition at 1 µM of 94%.
For `[O-][S+]1CCc2nc(N3CC4CC3CN4c3ccc(Br)cc3)nc(NC3CCOCC3)c21` (centres unmarked) [Example 20], the inhibition at 1 µM was 95%.
For `CC(C)[C@H](CO)Nc1nc(N2CCN(c3ccc(Cl)cc3)C[C@H]2C)nc2c1[S+]([O-])CC2` (stereo partly drawn) [Example 1, (R)-2-{2-[(R)-4-(4-chlorophenyl)-2-methylpiperazin-1-yl]-5-oxo-6,7-dihydro-5H-5λ^4-thieno[3,2-d]pyrimidin-4-ylamino}-3-methylbutan-1-ol], the inhibition at 1 µM was 84%.
Compound `C[C@H]1CN(c2ccc(Cl)cc2)CCN1c1nc2c(c(NC3CCOCC3)n1)[S+]([O-])CC2` (some centres unmarked) [Example 4] has an inhibition at 1 µM of 95%.
`O=C1CN(c2nc3c(c(NC4CCOCC4)n2)[S+]([O-])CC3)CCN1c1ccccc1` (centres unmarked) [Example 18] gave an inhibition at 1 µM of 93%.
With `C[C@H]1CN(c2ccc(Cl)cc2)CCN1c1nc2c(c(NC3(CO)CC3)n1)[S+]([O-])CC2` (some centres unmarked) [Example 5] the inhibition at 1 µM was 95%.
`C[C@H]1CN(c2ccc(Cl)cc2)CCN1c1nc2c(c(Nc3cccc(F)c3)n1)[S+]([O-])CC2` (some centres unmarked) [Example 10] was tested, and the inhibition at 1 µM was 94%.
With `O=C1CN(c2nc3c(c(Nc4cccc(F)c4)n2)[S+]([O-])CC3)CCN1c1ccccc1` (centres unmarked) [Example 19] the inhibition at 1 µM was 95%.
Work on `[O-][S+]1CCc2nc(N3CC4CC3CN4c3ccc(Cl)cc3)nc(NC3CCOCC3)c21` (centres unmarked) [Example 6] yielded an inhibition at 1 µM of 95%.
`[O-][S+]1CCc2nc(N3CC4CC3CN4c3cccc(F)c3)nc(NC3CCOCC3)c21` (centres unmarked) [Example 25] was tested, and the inhibition at 1 µM was 94%.
For `O=C1CN(c2nc3c(c(NC4CCOCC4)n2)[S+]([O-])CC3)CCN1c1cccc(Br)c1` (centres unmarked) [Example 14], the inhibition at 1 µM was 92%.
Work on `[O-][S+]1CCc2nc(N3C[C@H]4CC3CN4c3ccc(F)cc3)nc(NC3(CO)CC3)c21` (some centres unmarked) [Example 24, (1-{2-[5-(4-fluorophenyl)-2,5-diazabicyclo[2,2,1]hept-2-yl]-5-oxo-6,7-dihydro-5H-5λ^4-thieno[3,2-d]pyrimidin-4-ylamino}-cyclopropyl)-methanol] yielded an inhibition at 1 µM of 93%.
For `[O-][S+]1CCc2nc(N3CC4CC3CN4c3cccc(F)c3)nc(NC3(CO)CC3)c21` (centres unmarked) [Example 23], the inhibition at 1 µM was 93%.
In the case of `[O-][S+]1CCc2nc(N3C[C@H]4CC3CN4c3ccc(Br)cc3)nc(Nc3cccc(F)c3)c21` (some centres unmarked) [Example 21, {2-[5-(4-bromophenyl)-2,5-diazabicyclo[2,2,1]hept-2-yl]-5-oxo-6,7-dihydro-5H-5λ^4-thieno[3,2-d]pyrimidin-4-yl}-(3-fluorophenyl)-amine], the inhibition at 1 µM is reported as 95%.
Work on `C[C@H]1CN(c2ccc(Cl)cc2)CCN1c1nc2c(c(N[C@H]3CCC(=O)N(C)C3)n1)[S+]([O-])CC2` (some centres unmarked) [Example 3] yielded an inhibition at 1 µM of 96%.
In the case of `[O-][S+]1CCc2nc(N3CC4CC3CN4c3ccc(F)cc3)nc(NC3CCOCC3)c21` (centres unmarked) [Example 26], the inhibition at 1 µM is reported as 94%.
`CN1C[C@@H](Nc2nc(N3CCN(c4ccccc4)C(=O)C3)nc3c2[S+]([O-])CC3)CCC1=O` (some centres unmarked) [Example 17] was tested, and the inhibition at 1 µM was 96%.
For `[O-][S+]1CCc2nc(N3C4CCC3CN(c3ccc(Br)cc3)C4)nc(NC3CCOCC3)c21` (centres unmarked) [Example 27], the inhibition at 1 µM was 97%.
With `[O-][S+]1CCc2nc(N3C[C@H]4CC3CN4c3nc4ccccc4o3)nc(NC3CCOCC3)c21` (some centres unmarked) [Example 29, [2-(5-benzoxazol-2-yl-2,5-diazabicyclo[2,2,1]hept-2-yl)-5-oxo-6,7-dihydro-5H-5λ^4-thieno[3,2-d]pyrimidin-4-yl]-(tetrahydropyran-4-yl)-amine] the inhibition at 1 µM was 97%.

Same assay, conditions: Table C; test substance 1 μM; one hour incubation with [H3]-cAMP at 30° C.
With `[O-][S+]1CCc2nc(N3CCn4cnnc4C3)nc(NC3(CO)CC3)c21` (centres unmarked) [Example 33, {1-[2-(5,6-DIHYDRO-8H-[1,2,4]TRIAZOLO[4,3-A]PYRAZIN-7-YL)-5-OXO-6,7-DIHYDRO-5H-5λ^4-THIENO[3,2-D]PYRIMIDIN-4-YLAMINO]-CYCLOPROPYL}-METHANOL TRIFLUORACETATE] the inhibition at 1 µM was 75%.
For `CCOC(=O)c1cn2c(n1)CN(c1nc3c(c(NC4(CO)CC4)n1)[S+]([O-])CC3)CC2` (centres unmarked) [Example 30], the inhibition at 1 µM was 95%.
For `[O-][S+]1CCc2nc(N3CCn4c(Cc5ccc(Cl)c(Cl)c5)nnc4C3)nc(NC3(CO)CC3)c21` (centres unmarked) [Example 32], the inhibition at 1 µM was 91%.
`CCOC(=O)c1cn2c(n1)CN(c1nc3c(c(N[C@@H](CO)C(C)C)n1)[S+]([O-])CC3)CC2` (some centres unmarked) [Example 42] was tested, and the inhibition at 1 µM was 94%.
With `[O-][S+]1CCc2nc(N3CCn4c(nnc4-c4ccc(F)cc4)C3)nc(NC3(CO)CC3)c21` (centres unmarked) [Example 31] the inhibition at 1 µM was 93%.
`CC(C)[C@H](CO)Nc1nc(N2CCn3c(Cc4ccc(Cl)c(Cl)c4)nnc3C2)nc2c1[S+]([O-])CC2` (some centres unmarked) [Example 44] showed an inhibition at 1 µM of 78%.
Compound `[O-][S+]1CCc2nc(N3CCn4c(nnc4-c4ccc(F)cc4)C3)nc(Nc3cccc(F)c3)c21` (centres unmarked) [Example 39, (3-fluorophenyl)-{2-[3-(4-fluorophenyl)-5,6-dihydro-8H-[1,2,4]triazolo[4,3-a]pyrazin-7-yl]-5-oxo-6,7-dihydro-5H-5λ^4-thieno[3,2-d]pyrimidin-4-yl}-amine] has an inhibition at 1 µM of 95%.
Compound `[O-][S+]1CCc2nc(N3CCn4cnnc4C3)nc(NC3CCOCC3)c21` (centres unmarked) [Example 37, [2-(5,6-DIHYDRO-8H-[1,2,4]TRIAZOLO[4,3-A]PYRAZIN-7-YL)-5-OXO-6,7-DIHYDRO-5H-5λ^4-THIENO[3,2-D]PYRIMIDIN-4-YL]-(TETRAHYDRO-PYRAN-4-YL)-AMINE TRIFLUOROACETATE] has an inhibition at 1 µM of 87%.
In the case of `[O-][S+]1CCc2nc(N3CCn4c(Cc5ccc(Cl)c(Cl)c5)nnc4C3)nc(NC3CCOCC3)c21` (centres unmarked) [Example 36], the inhibition at 1 µM is reported as 93%.
Compound `CC(C)[C@H](CO)Nc1nc(N2CCn3cnnc3C2)nc2c1[S+]([O-])CC2` (stereo partly drawn) [Example 45, (R)-2-[2-(5,6-DIHYDRO-8H-[1,2,4]TRIAZOLO[4,3-A]PYRAZIN-7-YL)-5-OXO-6,7-DIHYDRO-5H-5λ^4-THIENO[3,2-D]PYRIMIDIN-4-YLAMINO]-3-METHYL-BUTAN-1-OL TRIFLUOROACETATE] has an inhibition at 1 µM of 55%.
Work on `CCOC(=O)c1cn2c(n1)CN(c1nc3c(c(Nc4cccc(F)c4)n1)[S+]([O-])CC3)CC2` (centres unmarked) [Example 38] yielded an inhibition at 1 µM of 95%.
`CCOC(=O)c1cn2c(n1)CN(c1nc3c(c(NC4CCOCC4)n1)[S+]([O-])CC3)CC2` (centres unmarked) [Example 34] gave an inhibition at 1 µM of 95%.
`[O-][S+]1CCc2nc(N3CCn4c(nnc4-c4ccc(F)cc4)C3)nc(NC3CCOCC3)c21` (centres unmarked) [Example 35] was tested, and the inhibition at 1 µM was 94%.
Compound `[O-][S+]1CCc2nc(N3CCn4c(Cc5ccc(Cl)c(Cl)c5)nnc4C3)nc(Nc3cccc(F)c3)c21` (centres unmarked) [Example 40, {2-[3-(3,4-dichlorobenzyl)-5,6-dihydro-8H-[1,2,4]triazolo[4,3-a]pyrazin-7-yl]-5-oxo-6,7-dihydro-5H-5λ^4-thieno[3,2-d]pyrimidin-4-yl}-(3-fluorophenyl)-amine] has an inhibition at 1 µM of 94%.

Same assay, conditions: Table D; test substance 1 μM; one hour incubation with [H3]-cAMP at 30° C.
For `O=C(c1cn2c(n1)CN(c1nc3c(c(NC4CCOCC4)n1)[S+]([O-])CC3)CC2)N1CCOCC1` (centres unmarked) [Example 48, Morpholin-4-yl-{7-[5-oxo-4-(tetrahydropyran-4-ylamino)-6,7-dihydro-5H-5λ^4-thieno[3,2-d]pyrimidin-2-yl]-5,6,7,8-tetrahydroimidazo[1,2-a]pyrazin-2-yl}-methanone], the inhibition at 1 µM was 93%.
In the case of `CCOC(=O)c1cn2c(n1)CN(c1nc3c(c(N[C@H]4CCC(=O)N(C)C4)n1)[S+]([O-])CC3)CC2` (some centres unmarked) [Example 46], the inhibition at 1 µM is reported as 97%.
`Cc1nn(C)cc1C(C)NC(=O)c1cn2c(n1)CN(c1nc3c(c(NC4CCOCC4)n1)[S+]([O-])CC3)CC2` (centres unmarked) [Example 52] gave an inhibition at 1 µM of 93%.
`Cc1nn(C)c(C)c1CNC(=O)c1cn2c(n1)CN(c1nc3c(c(NC4CCOCC4)n1)[S+]([O-])CC3)CC2` (centres unmarked) [Example 51] showed an inhibition at 1 µM of 94%.
`Cc1cn(C)nc1CN(C)C(=O)c1cn2c(n1)CN(c1nc3c(c(NC4CCOCC4)n1)[S+]([O-])CC3)CC2` (centres unmarked) [Example 56] gave an inhibition at 1 µM of 94%.
In the case of `CN(C(=O)c1cn2c(n1)CN(c1nc3c(c(NC4CCOCC4)n1)[S+]([O-])CC3)CC2)C1CCOCC1` (centres unmarked) [Example 54], the inhibition at 1 µM is reported as 94%.
For `CC(C)(NC(=O)c1cn2c(n1)CN(c1nc3c(c(NC4CCOCC4)n1)[S+]([O-])CC3)CC2)c1ccncc1` (centres unmarked) [Example 53], the inhibition at 1 µM was 94%.
Compound `Cc1nn(C)cc1CNC(=O)c1cn2c(n1)CN(c1nc3c(c(NC4CCOCC4)n1)[S+]([O-])CC3)CC2` (centres unmarked) [Example 57] has an inhibition at 1 µM of 94%.
Work on `O=C(c1cn2c(n1)CN(c1nc3c(c(NC4CCOCC4)n1)[S+]([O-])CC3)CC2)N(C1CCOCC1)C1CC1` (centres unmarked) [Example 55] yielded an inhibition at 1 µM of 93%.
